Tests used:
[1] = tested on: Lewis lung carcinoma (LLC); experiment: Lewis lung carcinoma (LLC) tumor xenograft growth in mice; format: in vivo, C57BL/6 mice; details: for tumor volume relative to that before the treatment: LLC in C57BL/6 mice, p<0.001
Experimental: The application of the additive cytotoxicity of IR combined with berberine in cancer treatment was further evidenced in an in vivo Lewis lung carcinoma (LLC) model in mice (Camphausen K, et al. Cancer Res 2001; 61:2207-11). Male C57BL/6 mice aged 4-6 weeks (National Taiwan University Animal Center, Taiwan) were used. To form a tumor xenograft, Lewis lung cells (2×10^6) were injected s.c. into the right hind limb. Animals were randomized into six groups: control, irradiation (IR) alone, berberine (1.0, 2.0 mg/kg) alone, and IR combined with berberine (1.0, 2.0 mg/kg). For tumor irradiation, mice were immobilized in a customized harness that exposed the right hind leg while shielding the remainder of the body by 3.5 cm of lead. Mice were exposed to a single dose of 8 Gy. Berberine was supplemented (1.0, 2.0 mg/kg, i.p.) to animals 1 day before the radiation exposure, and then twice a week for 4 weeks. To obtain tumor growth curves, three orthogonal tumor diameters were measured every 4-day intervals with a vernier caliper, and the mean values were calculated. The animals were killed (n=5 per group) at the indicated time points, and the primary tumor was dissected and examined. Primary tumor growth delay was measured by calipers in two dimensions, and the volumes were calculated according to the formula: tumor volume=(width) 2×length×0.52. LLC cells were injected s.c. into the right thighs of C57BL/6 mice 10 days before the IR therapy. The animals were randomized into six treatment groups: untreated, 8 Gy radiation in one dose, berberine alone (1.0, 2.0 mg/kg i.p., twice weekly), and berberine combined with IR treatment (FIG. 6A). Berberine was supplemented to the indicated groups one day before the IR treatment and continued for 4 weeks. The tumor volume at the primary site of each group was measured before treatment, and the average tumor volume was designated as T0. When the animals were sacrificed at the end of experiment, the xenografts were removed, and the tumor volume was determined and presented as fold of T0. The blood samples were collected for biochemical analysis. […] Berberine at 1.0 and 2.0 mg/kg, as used with IR, has shrunk the tumor volume down to approximately 48% and 22% of that before the treatment (FIG. 6C, p<0.001). Furthermore, immunohistochemistry was performed to detect the level of beclin-1 and bcl-2 proteins in the xenograft. Primary tumors were fixed and then embedded in paraffin. The sections were stained with anti-bcl-2 mouse-monoclonal antibody (1:100, Santa Cruz Biotechnology, Santa Cruz, Calif.) or anti-beclin-1 rabbit polyclonal antiserum (1:50, Santa Cruz Biotechnology, Santa Cruz, Calif.). The sections were then incubated with blocking buffer for 40 min at RT followed by incubation with the primary antibody over night at 4° C. […]

A549 cells [2] = experiment: clonogenic survival assay (linear-quadratic model); format: cell-based, human
Experimental: (§1) Cells were cultured in phenol-red-free medium and irradiated with a […] (Varian, 21-EX). The radiation was delivered as a single dose ranging from 2 to 8 Gy in an appropriate field size at a dose rate of 400 cGy/min. A 3-cm polystyrene block was used under the petri dishes during each irradiation to allow homogeneous backscattering radiation. Control cells were removed from the incubator and placed for the same period of time under the IR source but without radiation treatment. In the combined treatment mortality tests, berberine was added 2 h prior to irradiation.
(§2) The enhancing effect of berberine on radio-sensitivity in NSCLC was performed by treating A549 with various concentrations of berberine alone or combined with different dose of IR at 37° C. for 24 h or 48 h followed by MTT assay for cell viability analysis. Thereafter, the medium was changed and incubated with 100 μl MTT (Sigma St Louis, Mo.)/well for 4 h, which was solubilized in isopropanol, and measured spectrophotometrically at 563 nm. […] To further ascertain the effect of berberine on the lethality of IR, clonogenic survival assay was performed to examine long term survival. IR or berberine-treated cells (1000 cells) were plated onto 10 cm tissue culture dish in five replicates. After 14 days, colonies were fixed with methanol, stained with 0.25% crystal violet, and counted if they were consisted of more than 50 cells. The fraction of colonies survived from the irradiation was normalized to that of the corresponding control. The curves were fitted to the data using linear-quadratic model. The data were depicted in FIG. 1C after normalization.
Statistical significances were analyzed by student t-test or one-way analysis of variance (ANOVA) with post-hock Dunnett's test. P-value≦0.05 was considered statistically significant (Sigma-Stat 2.0, San Rafael, Calif., USA). Survival fraction curve was analyzed by KaleigaGraph 4.0 then fitted to the data using linear-quadratic model. Combination index was analyzed by CalcuSyn.

A549 cells [3] = tested on: A549 cells
Experimental: as §1
as §2, with “IR or berberine-treated cells (1000 cells) were plated onto 10 cm tissue culture dish in five replicates.” left out, “The fraction of colonies survived from the irradiation was normalized to that of the corresponding control. The curves were fitted to the data using linear-quadratic model. The data were depicted in FIG. 1C after normalization.” left out

A549 cells [4] = experiment: cell cycle distribution by propidium iodide flow cytometry; format: cell-based, human; details: 24 h
Experimental: Flow cytometry was performed by propidium iodide staining (Roche Molecular Biochemical, Indianapolis, USA) according to the manufacturer's instructions. Untreated and treated cells were washed in PBS and fixed in ice-cold ethanol. Fixed cells were pelleted and resuspended in 500 μl of PBS. Then, the cells were stained with propidium iodide and analyzed for cell cycle distribution by flow cytometry with a FACStar caliber (Becton Dickinson) cell sorter. The percentage of each phase was evaluated by Cell-Quest software of the histograms.

[5] = IR (6 Gy) + 5.0 μM berberine, listed as Ber

COc1ccc2cc3[n+](cc2c1OC)CCc1cc2c(cc1-3)OCO2 [berberine, Berberine]
tumor volume relative to that before the treatment ([1]; berberine 1.0 mg/kg i.p. twice weekly for 4 weeks with IR 8 Gy): approximately 48% | tumor volume relative to that before the treatment ([1]; berberine 2.0 mg/kg i.p. twice weekly for 4 weeks with IR 8 Gy): ~22% | tumor size in tumor growth curves ([1]; berberine (1.0, 2.0 mg/kg) combined with IR 8 Gy, LLC in mice (FIG. 6B)): considerable reduced size | growth of the xenograft ([1]; berberine alone (1.0, 2.0 mg/kg i.p., twice weekly), LLC in mice): slowed down | decrease in the D0 value (A549 cells [2]; 10 μM berberine vs IR alone): 4.2 fold | D0 (dose of radiation producing a 37% survival rate) (A549 cells [2]; IR + 2.5 μM berberine): 4.01 Gy | SF2 (A549 cells [2]; IR + 2.5 μM berberine): 0.3184 | D0 (dose of radiation producing a 37% survival rate) (A549 cells [2]; IR + 5.0 μM berberine): 2.70 Gy | SF2 (A549 cells [2]; IR + 5.0 μM berberine): 0.2152 | D0 (dose of radiation producing a 37% survival rate) (A549 cells [2]; IR + 10 μM berberine): 1.24 Gy | SF2 (A549 cells [2]; IR + 10 μM berberine): 0.0991 | cell viability (A549 cells [3]; IR applied to cells incubated with berberine, 24 h and 48 h, A549 (FIG. 1B)): decreased | combination effect on cell viability (A549 cells [3]; berberine combined with 6 Gy IR, 24 h, A549 (FIG. 1A)): conspicuous | G0/G1 (A549 cells [4]; IR (6 Gy) + 2.5 μM berberine): 45.5 ± 4.96% | G2/M (A549 cells [4]; IR (6 Gy) + 2.5 μM berberine): 28.8% | S (A549 cells [4]; IR (6 Gy) + 2.5 μM berberine): 20.1 ± 2.26% | sub G1 (A549 cells [4]; IR (6 Gy) + 2.5 μM berberine): 5.6 ± 0.18% | G2/M (A549 cells [4]; IR (6 Gy) + 2.5 μM berberine, listed as Ber): 28.8 ± 2.91% | G0/G1 (A549 cells [4]; IR (6 Gy) + 5.0 μM berberine): 36.2 ± 4.15% | G2/M (A549 cells [4]; IR (6 Gy) + 5.0 μM berberine): 40.5% | S (A549 cells [4]; IR (6 Gy) + 5.0 μM berberine): 14.8 ± 2.05% | sub G1 (A549 cells [4]; IR (6 Gy) + 5.0 μM berberine): 8.5% | G2/M (A549 cells [4]; [5]): 40.5 ± 4.55% | sub G1 (A549 cells [4]; [5]): 8.5 ± 0.22% | G0/G1 (A549 cells [4]; IR (6 Gy) + 10 μM berberine): 33.9 ± 4.01% | G2/M (A549 cells [4]; IR (6 Gy) + 10 μM berberine): 41.7% | S (A549 cells [4]; IR (6 Gy) + 10 μM berberine): 15.5 ± 1.81% | sub G1 (A549 cells [4]; IR (6 Gy) + 10 μM berberine): 8.9 ± 0.25% | G2/M (A549 cells [4]; IR (6 Gy) + 10 μM berberine, listed as Ber): 41.7 ± 3.91% | G0/G1 (A549 cells [4]; IR (6 Gy) + 20 μM berberine): 37.2 ± 4.27% | G2/M (A549 cells [4]; IR (6 Gy) + 20 μM berberine): 30.5 ± 3.18% | S (A549 cells [4]; IR (6 Gy) + 20 μM berberine): 16.7 ± 2.33% | sub G1 (A549 cells [4]; IR (6 Gy) + 20 μM berberine): 15.6 ± 1.26%

— patent US20090076050A1, “SYNERGISTIC TUMOR-KILLING EFFECT OF RADIATION AND BERBERINE COMBINED TREATMENT IN LUNG CANCER” (CHUNG SHAN MEDICAL U., priority 2007, published 2009)
